Read-outs that look alike come from different tables or passages of the source.
What was measured:
[1] = biological target: T1, MDR1 transfected LLC-PK1 cells (Homo sapiens, UniProt P08183); test: MDR1 LLC-PK1 permeability assay; assay type: in vitro ADME; settings: efflux ratio = Papp(B-A)/Papp(A-B)
T1 construct: expressed in transfected cells; host or cells: LLC-PK1
In short: (§1)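 MDR1-transfected LLC-PK1 monolayers dosed at 1 μM test article (1% organic) in A→B and B→A directions, in triplicate, for 2 h at 37 °C; lucifer yellow monitored monolayer integrity. Compound measured by LC-MS/MS against labetalol internal standard; Papp averaged per replicate, efflux ratio = Papp(B−A)/Papp(A−B).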

[2] = biological target: T2, MDR1 (P-gp) (Homo sapiens, UniProt P08183); test: MDR1 LLC-PK1 permeability assay; assay type: in vitro ADME; settings: pig, MDR1 transfected LLC-PK1 cells; for Papp at 2 h, 1 μM: permeability coefficient (Papp)
T2 construct: expressed in transfected cells; host or cells: LLC-PK1
In short: as §1

[3] = LLC-PK1, Papp(B−A)/Papp(A−B), test article 1 μM, 2 hours, 37° C., read-out: Efflux ratio
[4] = LLC-PK1, efflux ratio = Papp(B-A)/Papp(A-B), read-out: MDR1 Pe Ratio

T2 sequence (P08183 whole entry): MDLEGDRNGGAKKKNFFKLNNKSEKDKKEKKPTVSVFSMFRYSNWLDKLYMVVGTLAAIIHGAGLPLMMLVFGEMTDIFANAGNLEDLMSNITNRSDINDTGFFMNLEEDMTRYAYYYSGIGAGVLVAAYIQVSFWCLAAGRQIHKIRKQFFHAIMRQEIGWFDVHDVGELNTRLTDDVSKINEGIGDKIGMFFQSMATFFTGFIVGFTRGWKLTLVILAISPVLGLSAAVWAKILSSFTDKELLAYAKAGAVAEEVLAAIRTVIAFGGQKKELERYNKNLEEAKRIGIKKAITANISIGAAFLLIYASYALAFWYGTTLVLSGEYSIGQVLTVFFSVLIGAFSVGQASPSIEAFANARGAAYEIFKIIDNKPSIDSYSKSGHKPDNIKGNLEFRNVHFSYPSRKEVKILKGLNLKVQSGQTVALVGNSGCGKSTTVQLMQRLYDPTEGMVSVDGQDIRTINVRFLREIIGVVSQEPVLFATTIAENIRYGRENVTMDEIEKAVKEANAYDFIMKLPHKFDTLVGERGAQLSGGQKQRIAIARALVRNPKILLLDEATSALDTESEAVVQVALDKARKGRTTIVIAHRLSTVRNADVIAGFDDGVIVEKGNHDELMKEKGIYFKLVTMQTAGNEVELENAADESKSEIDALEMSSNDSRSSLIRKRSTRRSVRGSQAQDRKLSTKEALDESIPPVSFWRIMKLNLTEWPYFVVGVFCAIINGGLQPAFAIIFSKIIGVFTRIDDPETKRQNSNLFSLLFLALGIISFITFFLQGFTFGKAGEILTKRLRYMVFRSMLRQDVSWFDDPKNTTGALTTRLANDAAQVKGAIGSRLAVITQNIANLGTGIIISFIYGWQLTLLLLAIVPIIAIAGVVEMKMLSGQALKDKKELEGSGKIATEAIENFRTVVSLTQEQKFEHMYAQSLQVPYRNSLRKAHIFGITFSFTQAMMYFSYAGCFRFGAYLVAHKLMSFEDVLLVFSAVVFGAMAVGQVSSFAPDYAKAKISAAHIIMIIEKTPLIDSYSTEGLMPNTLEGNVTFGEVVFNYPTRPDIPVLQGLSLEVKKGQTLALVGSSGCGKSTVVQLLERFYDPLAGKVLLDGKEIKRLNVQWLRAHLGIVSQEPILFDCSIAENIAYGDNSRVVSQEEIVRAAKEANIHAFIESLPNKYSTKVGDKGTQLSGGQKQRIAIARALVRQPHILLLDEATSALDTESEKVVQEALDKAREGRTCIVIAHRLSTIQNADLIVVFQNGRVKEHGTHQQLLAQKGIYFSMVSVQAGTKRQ
T1 sequence (P08183 whole entry): as above

MDR1 Pe Ratio [1] | efflux ratio at 2 h, 1 μM [2, 3] | Papp at 2 h, 1 μM [2] | efflux ratio at 2 h, 1 μM [2, 4] | Compound
3.5 | 3.5 | < 1 ×10⁻⁶ cm/s |  | COc1cc2nccc(Oc3ccc(NC(=O)c4cn(CCC(C)C)cc(-c5ccc(F)c(F)c5)c4=O)nc3)c2cc1OC [Example 35, 5-(3,4-difluorophenyl)-N-(5-((6,7-dimethoxyquinolin-4yl)oxy)pyridin-2-yl)-1-isopentyl-4-oxo-1,4-dihydropyridine-3-carboxamide]
 | 3.5 | 15 ×10⁻⁶ cm/s | 2.5 | COc1cc2ncc(C#N)c(Oc3ccc(NC(=O)c4cn(C(C)C)cc(-c5ccc(F)cc5)c4=O)nc3)c2cc1OC [Example 57, N-(5-((3-cyano-6,7-dimethoxyquinolin-4-yl)oxy)pyridin-2-yl)-5-(4-fluorophenyl)-1-isopropyl-4-oxo-1,4-dihydropyridine-3-carboxamide]
 | 3.5 | 10 ×10⁻⁶ cm/s | 3 | COc1cc2nccc(Oc3ccc(NC(=O)c4cn(C(C)C)cc(-c5ccc(F)cc5)c4=O)cn3)c2cc1OC [Example 58, N-(6-((6,7-dimethoxyquinolin-4-yl)oxy)pyridin-3-yl)-5-(4-fluorophenyl)-1-isopropyl-4-oxo-1,4-dihydropyridine-3-carboxamide]
